Measured values taken from patent US8796313B2, “Substituted dihydroisoindolones as allosteric modulators of glucokinase” (Janssen Pharmaceutica N.V., priority 2005, dated 2014).

Target: T1, human pancreas Glucokinase (GK) (Homo sapiens, UniProt P35557)
T1 construct: His6; made in house; host or cells: Escherichia coli
T1 sequence (P35557 1-465): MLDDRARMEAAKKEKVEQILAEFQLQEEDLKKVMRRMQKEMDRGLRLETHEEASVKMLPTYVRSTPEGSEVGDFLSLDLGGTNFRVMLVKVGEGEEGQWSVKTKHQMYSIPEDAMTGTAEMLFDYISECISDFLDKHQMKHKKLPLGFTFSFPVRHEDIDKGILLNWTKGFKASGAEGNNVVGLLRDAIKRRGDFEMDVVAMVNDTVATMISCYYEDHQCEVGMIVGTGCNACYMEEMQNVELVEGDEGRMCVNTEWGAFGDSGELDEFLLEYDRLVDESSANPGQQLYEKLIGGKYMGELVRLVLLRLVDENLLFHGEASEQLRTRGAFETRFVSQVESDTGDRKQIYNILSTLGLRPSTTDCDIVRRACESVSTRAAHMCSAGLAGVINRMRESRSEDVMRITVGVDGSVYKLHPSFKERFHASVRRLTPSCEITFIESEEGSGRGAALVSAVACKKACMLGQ
Experiment: Glucokinase enzyme assay, pancreas GK
Assay type: biochemical
Conditions: for % Activation @ 5 μM: cell states @ 5 μM instead of the head's 50 μM; for EC50: concentration that produces 50% activation above vehicle control; for EC100%: concentration that produces 100% activation above vehicle control; for activation at 50 µM: increase in GK activity above vehicle control, compound 50 μM, 12 mM glucose
From the text: An enzymatic Glucokinase (GK) assay using purified recombinant human liver/pancreas enzyme was used to evaluate the effects of potential small molecule modulators.
In this assay, GK catalyzes glucose phosphorylation in the presence of ATP. The product of this reaction, glucose-6-phosphate, was then oxidized by an excess of glucose-6-phosphate dehydrogenase to produce gluconate-6-phosphate with concomitant reduction of nicotinamide adenine dinucleotide (NAD). […] Human GK (Liver/Pancreas) was expressed in Escherichia coli as a (His) 6-tagged fusion protein and was purified by metal chelate affinity chromatography. The assay was performed in a final incubation volume of 80 μl in a 96-well clear low UV absorption plates. The incubation mixture consisted of 25 mM HEPES, 2 mM MgSO4, 1 mM dithiothreotol (DTT), 1 mg/mL bovine serum albumin (BSA), 1 mM ATP, 1 mM NAD, and 12 mM glucose, 10 units per mL glucose-6-phosphate dehydrogenase, and +/−300 ng per mL GK. For determination of the affinity (Km) and Vmax, different concentrations of glucose ranging from 0.5 mM to 40 mM were used in the assay; see Grimsby, J., Sarabu, R.; Grippo, J. F.; et. al. Science 2003, 301, 370-373. […] EC50% (μM) was calculated as the effective concentration of the compound that produces 50% activation above the vehicle control, and EC100% (μM) was calculated as the effective concentration of the compound that produces 100% activation above the vehicle control.

With `CCOC(=O)/C=C/c1ccc(NC(=O)CCC2c3c(F)cccc3C(=O)N2Cc2ccc(F)cc2)nc1` (centres unmarked) [Compound 45, 3-(6-{3-[7-Fluoro-2-(4-fluoro-benzyl)-3-oxo-2,3-dihydro-1H-isoindol-1-yl]-propionylamino}-pyridin-3-yl)-acrylic acid ethyl ester] the “% Activation @ 5 μM” value was 138 @ 5 μM %, the EC50 was 0.125 µM and the “EC100%” value was 0.813 µM.

In the case of `COc1ccc(CN2C(=O)c3ccccc3C2COC(=O)Nc2ccccn2)cc1` (centres unmarked) [Compound 19, Pyridin-2-yl-carbamic acid 2-(4-methoxy-benzyl)-3-oxo-2,3-dihydro-1H-isoindol-1-ylmethyl ester], the EC50 is reported as 4.8 µM, the “EC100%” value is reported as 70 µM and the activation at 50 µM is reported as 115%.

In the case of `O=C(CCC1c2c(Cl)cccc2C(=O)N1Cc1ccc(F)cc1)Nc1ccccn1` (centres unmarked) [Compound 36, 3-[7-Chloro-2-(4-fluoro-benzyl)-3-oxo-2,3-dihydro-1H-isoindol-1-yl]-N-pyridin-2-yl-propionamide], the EC50 is reported as 0.143 µM, the “EC100%” value is reported as 0.411 µM and the activation at 50 µM is reported as 342%.

With `O=C(CCC1c2c(F)ccc(F)c2C(=O)N1Cc1ccc(F)cc1)Nc1nc(C(=O)O)cs1` (centres unmarked) [Compound 25, 2-{3-[4,7-Difluoro-2-(4-fluoro-benzyl)-3-oxo-2,3-dihydro-1H-isoindol-1-yl]-propionylamino}-thiazole-4-carboxylic acid] the activation at 50 µM was 72.5%.

`NS(=O)(=O)c1ccc(NC(=O)CCC2c3c(F)cccc3C(=O)N2Cc2ccc(F)cc2)nc1` (centres unmarked) [Compound 34, 3-[7-Fluoro-2-(4-fluoro-benzyl)-3-oxo-2,3-dihydro-1H-isoindol-1-yl]-N-(5-sulfamoyl-pyridin-2-yl)-propionamide] was tested, and the EC50 was 0.407 µM, the “EC100%” value was 4.3 µM and the activation at 50 µM was 142%.

For `O=C(CCC1c2c(F)ccc(F)c2C(=O)N1Cc1ccc(F)cc1)Nc1ccc(C(=O)O)cn1` (centres unmarked) [Compound 20, 6-{3-[4,7-Difluoro-2-(4-fluoro-benzyl)-3-oxo-2,3-dihydro-1H-isoindol-1-yl]-propionylamino}-nicotinic acid], the EC50 was 0.203 µM, the “EC100%” value was 0.65 µM and the activation at 50 µM was 302%.

For `O=C(CCC1c2c(F)cccc2C(=O)N1Cc1ccc(F)cc1)Nc1ccc(Cl)cn1` (centres unmarked) [Compound 44, N-(5-Chloro-pyridin-2-yl)-3-[7-fluoro-2-(4-fluoro-benzyl)-3-oxo-2,3-dihydro-1H-isoindol-1-yl]-propionamide], the “% Activation @ 5 μM” value was 168 @ 5 μM %, the EC50 was 0.071 µM and the “EC100%” value was 0.375 µM.

`O=C(CCC1c2cccc(Cl)c2C(=O)N1Cc1ccc(F)cc1)Nc1ccccn1` (centres unmarked) [Compound 35, 3-[4-chloro-2-(4-fluoro-benzyl)-3-oxo-2,3-dihydro-1H-isoindol-1-yl]-N-pyridin-2-yl-propionamide] was tested, and the EC50 was 0.23 µM, the “EC100%” value was 0.75 µM and the activation at 50 µM was 306%.

With `O=C(CCC1c2c(F)cccc2C(=O)N1Cc1ccc(F)cc1)Nc1cc2ccccc2cn1` (centres unmarked) [Compound 29, 3-[7-Fluoro-2-(4-fluoro-benzyl)-3-oxo-2,3-dihydro-1H-isoindol-1-yl]-N-isoquinolin-3-yl-propionamide] the EC50 was 0.046 µM, the “EC100%” value was 0.32 µM and the activation at 50 µM was 212%.

For `COC(=O)c1ccc(NC(=O)CCC2c3ccccc3C(=O)N2Cc2ccc(OC)cc2)nc1` (centres unmarked) [Compound 9, 6-{3-[2-(4-Methoxy-benzyl)-3-oxo-2,3-dihydro-1H-isoindol-1-yl]-propionylamino}-nicotinic acid methyl ester], the EC50 was 0.4 µM, the “EC100%” value was 1.7 µM and the activation at 50 µM was 172%.

`CN(C)c1ccc(CN2C(=O)c3cccc(F)c3C2CCC(=O)Nc2ccc(C(=O)O)cn2)cc1` (centres unmarked) [Compound 49, 6-{3-[2-(4-Dimethylamino-benzyl)-7-fluoro-3-oxo-2,3-dihydro-1H-isoindol-1-yl]-propionylamino}-nicotinic acid] was tested, and the EC50 was 0.06 µM, the “EC100%” value was 0.34 µM and the activation at 50 µM was 212%.

`O=C(CCC1c2ccccc2C(=O)N1Cc1ccc(F)cc1)Nc1ccc(C(=O)O)cn1` (centres unmarked) [Compound 7, 6-{3-[2-(4-Fluoro-benzyl)-3-oxo-2,3-dihydro-1H-isoindol-1-yl]-propionylamino}-nicotinic acid] was tested, and the EC50 was 3.9 µM, the “EC100%” value was 15 µM and the activation at 50 µM was 153%.

`O=C(CCC1c2cccc(F)c2C(=O)N1Cc1ccc(F)cc1)Nc1ccc(C(=O)O)cn1` (centres unmarked) [Compound 15, 6-{3-[4-Fluoro-2-(4-fluoro-benzyl)-3-oxo-2,3-dihydro-1H-isoindol-1-yl]-propionylamino}-nicotinic acid] was tested, and the EC50 was 0.53 µM, the “EC100%” value was 3.4 µM and the activation at 50 µM was 188%.

`O=C(CCC1c2c(F)cccc2C(=O)N1Cc1ccc(F)cc1)Nc1ccc(Cl)nn1` (centres unmarked) [Compound 43, N-(6-Chloro-pyridazin-3-yl)-3-[7-fluoro-2-(4-fluoro-benzyl)-3-oxo-2,3-dihydro-1H-isoindol-1-yl]-Propionamide] was tested, and the EC50 was 0.629 µM, the “EC100%” value was 5.2 µM and the activation at 50 µM was 152%.

In the case of `O=C(Nc1ccccn1)OCCC1c2cccc(F)c2C(=O)N1Cc1ccc(F)cc1` (centres unmarked) [Compound 17, Pyridin-2-yl-carbamic acid 2-[4-fluoro-2-(4-fluoro-benzyl)-3-oxo-2,3-dihydro-1H-isoindol-1-yl]-ethyl ester], the activation at 50 µM is reported as 23.8%.

For `O=C(CCC1c2c(F)cccc2C(=O)N1Cc1ccc(-n2cccc2)cc1)Nc1ccc(F)cn1` (centres unmarked) [Compound 42, 3-[7-Fluoro-3-oxo-2-(4-pyrol-1-yl-benzyl)-2,3-dihydro-1H-isoindol-1-yl]-N-(5-fluoro-pyridin-2-yl)-propionamide], the EC50 was 0.182 µM, the “EC100%” value was 1.7 µM and the activation at 50 µM was 168%.

For `O=C(CCC1c2c(F)cccc2C(=O)N1Cc1ccc(F)cc1)Nc1ccccn1` (centres unmarked) [Compound 12, 3-[7-Fluoro-2-(4-fluoro-benzyl)-3-oxo-2,3-dihydro-1H-isoindol-1-yl]-N-pyridin-2-vi-propionamide], the EC50 was 0.094 µM, the “EC100%” value was 0.74 µM and the activation at 50 µM was 179%.

For `O=C(CCC1c2c(F)cccc2C(=O)N1Cc1ccc(F)cc1)Nc1ccc2ccccc2n1` (centres unmarked) [Compound 28, 3-[7-Fluoro-2-(4-fluoro-benzyl)-3-oxo-2,3-dihydro-1H-isoindol-1-yl]-N-quinolin-2-yl-propionamide], the EC50 was 0.13 µM, the “EC100%” value was 6.3 µM and the activation at 50 µM was 120%.

`O=C(CCC1c2c(F)cccc2C(=O)N1Cc1ccc(F)cc1)Nc1cccc[n+]1[O-]` (centres unmarked) [Compound 40, 3-[7-Fluoro-2-(4-fluoro-benzyl)-3-oxo-2,3-dihydro-1H-isoindol-1-yl]-N-(1-oxy-pyridin-2-yl)-propionamide] gave an activation at 50 µM of 52.3%.

For `O=C(CCC1c2c(F)ccc(F)c2C(=O)N1Cc1ccc(F)cc1)Nc1ccc(C(F)(F)F)cn1` (centres unmarked) [Compound 18, 3-[4,7-Difluoro-2-(4-fluoro-benzyl)-3-oxo-2,3-dihydro-1H-isoindol-1-yl]-N-(5-trifluoromethyl-pyridin-2-yl)-propionamide], the EC50 was 2 µM, the “EC100%” value was 46 µM and the activation at 50 µM was 95%.

With `O=C(CCC1c2c(F)cccc2C(=O)N1Cc1ccc(F)cc1)Nc1ccc(Br)cn1` (centres unmarked) [Compound 32, N-(5-Bromo-pyridin-2-yl)-3-[7-fluoro-2-(4-fluoro-benzyl)-3-oxo-2,3-dihydro-1H-isoindol-1-yl]-propionamide] the EC50 was 0.013 µM, the “EC100%” value was 0.39 µM and the activation at 50 µM was 147%.

In the case of `COCOCc1ccc(NC(=O)CCC2c3c(F)cccc3C(=O)N2Cc2ccc(F)cc2)nc1` (centres unmarked) [Compound 30, 3-[7-Fluoro-2-(4-fluoro-benzyl)-3-oxo-2,3-dihydro-1H-isoindol-1-yl]-N-(5methoxymethoxymethyl-pyridin-2-yl)-propionamide], the EC50 is reported as 0.23 µM, the “EC100%” value is reported as 1.2 µM and the activation at 50 µM is reported as 175%.

`COC(=O)c1ccc(NC(=O)CC[C@@H]2c3c(F)cccc3C(=O)N2Cc2ccc(F)cc2)nc1` [Compound 50, (R)-6-{3-[7-Fluoro-2-(4-fluoro-benzyl)-3-oxo-2,3-dihydro-1H-isoindol-1-yl]-propionylamino}-nicotinic acid methyl ester] was tested, and the activation at 50 µM was 38.6%.

Work on `O=C(CC1c2ccccc2C(=O)N1Cc1ccc(F)cc1)Nc1ccc(C(=O)O)cn1` (centres unmarked) [Compound 6, 6-{2-[2-(4-Fluoro-benzyl)-3-oxo-2,3-dihydro-1H-isoindol-1-yl]-acetylamino}-nicotinic acid] yielded an activation at 50 µM of 7.92%.
